This note sets out measurements from patent US12551532B2, “Long-acting amylin receptor agonists and uses thereof” (Eli Lilly and Company, priority 2021, dated 2026).

Each structure is given as a SMILES string. Starred links: 1 amine or outer side, 2 acyl side, 3 side chain; linkers in the order of their positions; H or OH if unused. Positions of bridges follow the written chain, without caps; N, C: chain ends. Non-standard residues stand in square brackets, D forms with d. Residues, ends and D or L forms follow the SMILES beside them. Groups on a side chain read outwards from the residue. *: point of attachment. C20 diacid = O=C(O)CCCCCCCCCCCCCCCCCCC(=O)*; γGlu = O=C(O)[C@H](CCC(=O)[*:2])N[*:1]; αMeF = C[C@](N)(Cc1ccccc1)C(=O)O; NMeD = CN[C@@H](CC(=O)O)C(=O)O; αMeL = CC(C)C[C@](C)(N)C(=O)O; Orn = NCCC[C@H](N)C(=O)O; AEEA = NCCOCCOCC(=O)O; CH2 = C([*:1])[*:2]

The EC50 is the midpoint of the concentration-response curve.

For one assay, the target named is T1, hAMY1R (Homo sapiens, UniProt O60894+P30988).
T1 construct: expressed in transfected cells
T1 sequence (O60894 27-148 partner, one chain of several): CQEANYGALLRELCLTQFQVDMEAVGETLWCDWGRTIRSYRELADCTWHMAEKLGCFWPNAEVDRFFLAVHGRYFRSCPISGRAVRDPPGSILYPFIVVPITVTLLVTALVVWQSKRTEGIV
Briefly: hAMY1R cAMP functional activity (HTRF). The assay is classed as cell-based. As to conditions: ±SE; UMUC3 cells overexpressing hAMY1R; relative EC50. As to the method: (§1) The AMY1 and CT receptors are GPCRs that are functionally coupled to Gas proteins. […] In vitro activity of peptides is measured by the amount of cAMP formed in human AMY1R and CTR overexpressed cells.
Human AMY1R stable cell lines are generated by further transfecting human RAMP1-pCMVpuroPB (T14213) into UMUC3 hCTR clone cells. After selection, the mRNA levels human RAMP1 from different clones are measured to confirm the expression of human AMY1R.
(§2) hAMY1R cells are cultured in MEM 1× (Corning) supplemented with 10% FBS, 1% antibiotic/antimycotic solution, 1 mM sodium pyruvate, 1×MEM NEAA, 1× GlutaMAX-I, 200 μg/mL hygromycin B, and 0.4 μg/mL puromycin. The hCTR cells are cultured in the same medium lacking the puromycin. Cultured cells are grown to 70% confluency and then incubated overnight with fresh medium.
(§3) Peptides diluted in DMSO are added (200 nL/well) in a 1:3 dilution series using ECHO acoustic liquid handler (Beckman). Cultured cells are detached with TrypLE Express (Gibco), resuspended in assay buffer, and 10 μL containing 1200 cells/well (hCTR) or 1500 cells/well (hAMY1R) are dispensed into each well. The plates are incubated at room temperature for 1 hour.
(§4) The amount of intracellular cAMP is quantitated using HTRF technology (Homogeneous Time Resolved Fluorescence; Cisbio) as per vendor instructions. Briefly, 10 μL cAMP-d2 conjugate and 10 μL anti-cAMP-cryptate conjugate in lysis buffer are incubated with the treated cells at room temperature for 60 min. […] The raw data are converted to cAMP amount (pmol/well) using a cAMP standard curve generated for each experiment.
In general terms: In TR-FRET formats the signal depends on donor and acceptor labels being close together.

In another assay the target is T2, human CT receptors (Homo sapiens, UniProt P30988).
T2 construct: expressed in transfected cells
T2 sequence (P30988 25-474): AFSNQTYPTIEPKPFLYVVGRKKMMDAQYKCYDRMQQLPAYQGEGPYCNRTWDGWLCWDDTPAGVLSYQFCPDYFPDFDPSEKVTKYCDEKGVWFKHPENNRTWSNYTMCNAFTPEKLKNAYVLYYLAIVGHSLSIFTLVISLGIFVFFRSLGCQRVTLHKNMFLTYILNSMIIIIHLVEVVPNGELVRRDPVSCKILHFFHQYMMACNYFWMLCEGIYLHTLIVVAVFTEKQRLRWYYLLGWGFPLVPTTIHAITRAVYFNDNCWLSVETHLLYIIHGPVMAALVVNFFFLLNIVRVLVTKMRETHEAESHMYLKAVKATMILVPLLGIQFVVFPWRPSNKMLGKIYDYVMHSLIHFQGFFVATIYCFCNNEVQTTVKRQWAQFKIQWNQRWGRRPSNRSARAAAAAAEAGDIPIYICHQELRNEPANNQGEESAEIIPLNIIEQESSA
Briefly: hCTR cAMP functional activity (HTRF). The assay is classed as cell-based. As to conditions: ±SE; UMUC3 cells overexpressing hCTR; relative EC50. The procedure:
as §1
Human CT receptors are stably expressed in human urinary bladder cells (UM-UC-3, or UMUC3) under control of a pcDNA expression vector. […] After 20 days under selection, the mRNA levels from different clones are measured to confirm the expression of hCTR. To determine the function of over-expressed hCTR cells, the intracellular cAMP levels in response to salmon calcitonin are measured and compared to the expression of hCTR mRNA in each clone.
as §2, §3, §4

With `CC(C)C[C@H](NC(=O)[C@H](CCCCN)NC(=O)CNC(=O)[C@@H](NC(=O)[C@H](C)NC(=O)[C@@H]1CSCSC[C@H](NC(=O)CC[C@H](N)C(=O)O)C(=O)N[C@@H](CC(N)=O)C(=O)N[C@@H]([C@@H](C)O)C(=O)N[C@@H](C)C(=O)N[C@@H]([C@@H](C)O)C(=O)N1)[C@@H](C)O)C(=O)N[C@@H](C)C(=O)N[C@@H](CCC(=O)O)C(=O)N[C@@H](Cc1ccccc1)C(=O)N[C@@H](CC(C)C)C(=O)N[C@H](C(=O)N[C@@H](CCCNC(=N)N)C(=O)N[C@@H](CO)C(=O)N[C@@H](CO)C(=O)N[C@@H](CC(N)=O)C(=O)N[C@@H](CC(N)=O)C(=O)N[C@@H](Cc1ccccc1)C(=O)NCC(=O)N1CCC[C@H]1C(=O)N[C@@H](CCCCNC(=O)COCCOCCNC(=O)COCCOCCNC(=O)CC[C@H](NC(=O)CCCCCCCCCCCCCCCCCCC(=O)O)C(=O)O)C(=O)N[C@@H](CC(C)C)C(=O)N1CCC[C@H]1C(=O)N1CCC[C@H]1C(=O)N[C@H](C(=O)N[C@@H](CCC(=O)O)C(=O)N[C@H](C(=O)NCC(=O)N[C@@H](CO)C(=O)N[C@@H](CC(N)=O)C(=O)N[C@H](C(=O)N[C@@H](Cc1ccc(O)cc1)C(N)=O)[C@@H](C)O)C(C)C)[C@@H](C)O)C(C)C` [Compound IX] (γGlu-CNTATCATGKLAEFLVRSSNNFGPK([AEEA-AEEA-γGlu-C20 diacid])LPPTEVGSNTY-NH2; linker 1-6 via CH2), the EC50 on hAMY1R turned out to be 0.132 ± 0.02 nM; on human CT receptors, 18.9 ± 3.83 nM.

On to `CC[C@H](C)[C@H](NC(=O)[C@@H]1CCCN1C(=O)CNC(=O)[C@H](Cc1ccccc1)NC(=O)[C@H](CC(=O)O)N(C)C(=O)[C@H](CC(N)=O)NC(=O)[C@H](CO)NC(=O)[C@H](CO)NC(=O)[C@H](CCCNC(=N)N)NC(=O)[C@@H](NC(=O)[C@H](CC(C)C)NC(=O)[C@](C)(Cc1ccccc1)NC(=O)[C@H](CCC(=O)O)NC(=O)[C@H](C)NC(=O)[C@H](CC(C)C)NC(=O)[C@H](CCCN)NC(=O)CNC(=O)[C@@H](NC(=O)[C@H](C)NC(=O)[C@@H]1CSCSC[C@H](NC(=O)[C@@H](N)CCCCN)C(=O)N[C@@H](CCC(=O)O)C(=O)N[C@@H]([C@@H](C)O)C(=O)N[C@@H](C)C(=O)N[C@@H]([C@@H](C)O)C(=O)N1)[C@@H](C)O)C(C)C)C(=O)N[C@@H](CC(C)C)C(=O)N1CCC[C@H]1C(=O)N1CCC[C@H]1C(=O)N[C@H](C(=O)N[C@@H](CCC(=O)O)C(=O)N[C@H](C(=O)NCC(=O)N[C@@H](CO)C(=O)N[C@@H](CC(N)=O)C(=O)N[C@H](C(=O)N[C@@H](Cc1ccc(O)cc1)C(N)=O)[C@@H](C)O)C(C)C)[C@@H](C)O` [Compound V, KCETATCATG-Orn-LAE-αMeF-LVRSSN-NMeD-FGPILPPTEVGSNTY-NH2] (H-KCETATCATG[Orn]LAE[αMeF]LVRSSN[NMeD]FGPILPPTEVGSNTY-NH2; linker 2-7 via CH2), for which the EC50 on hAMY1R stood at 0.139 ± 0.017 nM; on human CT receptors it was 17 ± 2.44 nM.

Take `CC(C)C[C@H](NC(=O)[C@H](CCCN)NC(=O)CNC(=O)[C@@H](NC(=O)[C@H](C)NC(=O)[C@@H]1CSCSC[C@H](NC(=O)CC[C@H](N)C(=O)O)C(=O)NCC(=O)N[C@@H]([C@@H](C)O)C(=O)N[C@@H](C)C(=O)N[C@@H]([C@@H](C)O)C(=O)N1)[C@@H](C)O)C(=O)N[C@@H](C)C(=O)N[C@@H](CCC(=O)O)C(=O)N[C@@H](Cc1ccccc1)C(=O)N[C@@H](CC(C)C)C(=O)N[C@H](C(=O)N[C@@H](CCCNC(=N)N)C(=O)N[C@@H](CO)C(=O)N[C@@H](CO)C(=O)N[C@@H](CC(N)=O)C(=O)N[C@@H](CC(N)=O)C(=O)N[C@@H](Cc1ccccc1)C(=O)NCC(=O)N1CCC[C@H]1C(=O)N[C@@H](CCCCNC(=O)CC[C@H](NC(=O)CC[C@H](NC(=O)CCCCCCCCCCCCCCCCCCC(=O)O)C(=O)O)C(=O)O)C(=O)N[C@@H](CC(C)C)C(=O)N1CCC[C@H]1C(=O)N1CCC[C@H]1C(=O)N[C@H](C(=O)N[C@@H](CCC(=O)O)C(=O)N[C@H](C(=O)NCC(=O)N[C@@H](CO)C(=O)N[C@@H](CC(N)=O)C(=O)N[C@H](C(=O)N[C@@H](Cc1ccc(O)cc1)C(N)=O)[C@@H](C)O)C(C)C)[C@@H](C)O)C(C)C` [Compound XIII] (γGlu-CGTATCATG[Orn]LAEFLVRSSNNFGPK([γGlu-γGlu-C20 diacid])LPPTEVGSNTY-NH2; linker 1-6 via CH2): the EC50 was found to be 0.078 ± 0.014 nM on hAMY1R and 9.49 ± 1.54 nM at human CT receptors.

Regarding `CC[C@H](C)[C@H](NC(=O)[C@@H]1CCCN1C(=O)CNC(=O)[C@H](Cc1ccccc1)NC(=O)[C@H](CC(N)=O)NC(=O)[C@H](Cc1c[nH]cn1)NC(=O)[C@H](CO)NC(=O)[C@H](CO)NC(=O)[C@H](CCCNC(=N)N)NC(=O)[C@@H](NC(=O)[C@H](CC(C)C)NC(=O)[C@H](Cc1ccccc1)NC(=O)[C@H](CCC(=O)O)NC(=O)[C@H](C)NC(=O)[C@](C)(CC(C)C)NC(=O)[C@H](CCCN)NC(=O)CNC(=O)[C@@H](NC(=O)[C@H](C)NC(=O)[C@@H]1CSCSC[C@H](NC(=O)[C@@H](N)CCCCN)C(=O)N[C@@H](CCC(=O)O)C(=O)N[C@@H]([C@@H](C)O)C(=O)N[C@@H](C)C(=O)N[C@@H]([C@@H](C)O)C(=O)N1)[C@@H](C)O)C(C)C)C(=O)N[C@@H](CC(C)C)C(=O)N1CCC[C@H]1C(=O)N1CCC[C@H]1C(=O)N[C@H](C(=O)N[C@@H](CCC(=O)O)C(=O)N[C@H](C(=O)NCC(=O)N[C@@H](CO)C(=O)N[C@@H](CC(N)=O)C(=O)N[C@H](C(=O)N[C@@H](Cc1ccc(O)cc1)C(N)=O)[C@@H](C)O)C(C)C)[C@@H](C)O` [Compound VII] (H-KCETATCATG[Orn][αMeL]AEFLVRSSHNFGPILPPTEVGSNTY-NH2; linker 2-7 via CH2), the EC50 on hAMY1R was 0.173 ± 0.034 nM; at human CT receptors, 11.9 ± 1.53 nM.

On to `CC(C)C[C@H](NC(=O)[C@H](CCCCN)NC(=O)CNC(=O)[C@@H](NC(=O)[C@H](C)NC(=O)[C@@H]1CSCSC[C@H](NC(=O)CC[C@H](N)C(=O)O)C(=O)N[C@@H](CC(N)=O)C(=O)N[C@@H]([C@@H](C)O)C(=O)N[C@@H](C)C(=O)N[C@@H]([C@@H](C)O)C(=O)N1)[C@@H](C)O)C(=O)N[C@@H](C)C(=O)N[C@@H](CCC(=O)O)C(=O)N[C@@H](Cc1ccccc1)C(=O)N[C@@H](CC(C)C)C(=O)N[C@H](C(=O)N[C@@H](CCCNC(=N)N)C(=O)N[C@@H](CO)C(=O)N[C@@H](CO)C(=O)N[C@@H](CC(N)=O)C(=O)N[C@@H](CC(N)=O)C(=O)N[C@@H](Cc1ccccc1)C(=O)NCC(=O)N1CCC[C@H]1C(=O)N[C@@H](CCCCNC(=O)CC[C@H](NC(=O)CC[C@H](NC(=O)COCCOCCNC(=O)CCCCCCCCCCCCCCCCCCC(=O)O)C(=O)O)C(=O)O)C(=O)N[C@@H](CC(C)C)C(=O)N1CCC[C@H]1C(=O)N1CCC[C@H]1C(=O)N[C@H](C(=O)N[C@@H](CCC(=O)O)C(=O)N[C@H](C(=O)NCC(=O)N[C@@H](CO)C(=O)N[C@@H](CC(N)=O)C(=O)N[C@H](C(=O)N[C@@H](Cc1ccc(O)cc1)C(N)=O)[C@@H](C)O)C(C)C)[C@@H](C)O)C(C)C` [Compound XI] (γGlu-CNTATCATGKLAEFLVRSSNNFGPK([γGlu-γGlu-AEEA-C20 diacid])LPPTEVGSNTY-NH2; linker 1-6 via CH2), for which the EC50 at hAMY1R is 0.038 ± 0.0078 nM; on human CT receptors, 10.5 ± 2.2 nM.
